In brackets after ≈: the same amount, converted by molar mass. Values belong to the compound of their own block, whether it stands above or below them.
Key:
[1] = Regorafenib concentration and degradation in F6H8 suspension by HPLC; assay type: physicochemical
Experimental: The Suspension was homogenized by stirring at room temperature for 15 minutes. […] The observed fluctuation was most likely due to inhomogeneity of the sample after manual shaking of the suspension.
[…] were injected into an Agilent 1100 HPLC system (Agilent, Waldbronn, Germany), and samples were run on a heated (40° C.) Symmetry C18 column (150×4.6 mm-3.5 um particle size, Waters, Eschborn, Germany) applying a flow rate of 1 ml/min. The mobile phase consisted of a mixture of potassium phosphate buffer pH 2.4 (A) and acetonitrile/ethanol (6/4) (B). The following gradient was applied: minute 0: A, 60%/B, 40%: minute 12: A, 20%/B, 80%: minute 16: A, 20%/B, 80%: minute 16.5: A, 60%/B, 40%: minute 20: A, 60%/B, 40%.

[2] = Solubility in water (reported); assay type: physicochemical
[3] = system: rabbit glaucoma filtration surgery model; experiment: Rabbit glaucoma filtration surgery model; assay type: in vivo, New Zealand White rabbits; conditions: vs vehicle
[4] = cited from earlier work
[5] = Solubility of nintedanib in various solubilizers; assay type: physicochemical
Experimental: Tare 1.5 mL Eppendorf tube 2. […] Add solubilizer and record weight 4. Add water pH 5 (except F3 & F4) and record weight 5. Beadbeater mix for 120 seconds 6. Place on rotating mixer for overnight at ambient temperature 7. Filter through 0.2 μm SPIN-X centrifuge filter 8. Measure pH of filtrate 9. Assay filtrate using CBT-001 standard solution [table]

[6] = Solubility of nintedanib in a representative water-based emulsion system; assay type: physicochemical; conditions: for solubility: water-based emulsion, aqueous with cosolvent or surfactant or cyclodextrin, Nintedanib solubility
[7] = water-based emulsion of castor oil, polysorbate 80 and polyoxyl-35 castor oil

- Measured regorafenib concentration, % of theoretical concentration ([1]; 400 mg micronized regorafenib monohydrate suspended in 20 ml F6H8, HPLC): 95.4-99.1%
SMILES: CNC(=O)c1cc(Oc2ccc(NC(=O)Nc3ccc(Cl)c(C(F)(F)F)c3)c(F)c2)ccn1 [Regorafenib, regorafenib]
- degradation products in HPLC chromatograms ([1]; 400 mg micronized regorafenib monohydrate suspended in 20 ml F6H8): No unidentified degradation product was observed

- reported solubility in water, as percent [2]: < 0.001%
- Nintedanib solubility ([5]; solubilizer BZA, filtrate pH 5.6): 0.01 mg/g
- Nintedanib solubility ([5]; solubilizer BZK, filtrate pH 5.6): 0.20 mg/g
- Nintedanib solubility ([5]; solubilizer Castor oil): 0.37 mg/g
- Nintedanib solubility ([5]; solubilizer EtOH, filtrate pH 6.1): 0.01 mg/g
- Nintedanib solubility ([5]; solubilizer Mineral oil): 0.00 mg/g
- Nintedanib solubility ([5]; solubilizer PEG 400, filtrate pH 5.6): 0.17 mg/g
- Nintedanib solubility ([5]; solubilizer PEG 8000, filtrate pH 6.0): 0.01 mg/g
- Nintedanib solubility ([5]; solubilizer PG, filtrate pH 6.0): 0.01 mg/g
- Nintedanib solubility ([5]; solubilizer PLXMR 188, filtrate pH 6.5): 0.01 mg/g
- Nintedanib solubility ([5]; solubilizer PLXMR 407, filtrate pH 6.3): 0.01 mg/g
- Nintedanib solubility ([5]; solubilizer polysorbate 20, filtrate pH 6.6): 0.06 mg/g
- Nintedanib solubility ([5]; solubilizer polysorbate 80, filtrate pH 6.7): 0.25 mg/g
- nintedanib dissolved by the emulsion system [6, 7]: 3 to 5 mg/mL
- ophthalmic emulsion concentration of nintedanib [6, 7]: 0.3%-0.5
- solubility ([6]; emulsion F70 lot 1: castor oil 1, polysorbate 80 1, polyoxyl-35 castor oil 2, water 95): 5 mg/mL (≈ 9.27 mM)
- solubility ([6]; emulsion F70 lot 2: castor oil 1, polysorbate 80 1, polyoxyl-35 castor oil 2, water 95): 3.4 mg/mL (≈ 6.3 mM)
SMILES: COC(=O)c1ccc2c(c1)NC(=O)/C2=C(\Nc1ccc(N(C)C(=O)CN2CCN(C)CC2)cc1)c1ccccc1 [Nintedanib, nintedanib]
- fibroblast density ([3]; group 3: 0.3% emulsion BID minus Day 7-Day 30, rabbit): trend of reduction not statistically significant
- fibroblast density ([3]; group 4: 0.3% emulsion BID Day 1-Day 30, rabbit): significant reduction
- reported solubility in water ([4]; water): less than 0.01 mg/mL

SMILES: CNC(=O)c1ccccc1Sc1ccc2c(/C=C/c3ccccn3)n[nH]c2c1 [Axitinib, axitinib]
- solubility in water ([4]; water at neutral pH): 0.2 mg/mL (≈ 0.517 mM)
